Molecular target: endogenous cellular BACE2 in the Ins1e rat cell line (Rattus norvegicus (Rat), UniProt Q6IE75)
Assay: Assay for BACE inhibition by measuring cellular TMEM27 cleavage (ELISA of shed hTMEM27 from INS-TMEM27 cells)
Assay type: cell-based
Conditions: assay a): cellular TMEM27 cleavage, INS-TMEM27 cells (superscript a)
In short: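 Shed human TMEM27 is quantified by ELISA in medium of TetOn INS1e cells after 46 h at 37 °C. Compound is dosed across a concentration range, followed 2 h later by doxycycline induction at 500 ng/ml. Each concentration's readout is curve-fitted to give the EC50.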

endogenous cellular BACE2 in the Ins1e rat cell line, sequence (Q6IE75 63-514): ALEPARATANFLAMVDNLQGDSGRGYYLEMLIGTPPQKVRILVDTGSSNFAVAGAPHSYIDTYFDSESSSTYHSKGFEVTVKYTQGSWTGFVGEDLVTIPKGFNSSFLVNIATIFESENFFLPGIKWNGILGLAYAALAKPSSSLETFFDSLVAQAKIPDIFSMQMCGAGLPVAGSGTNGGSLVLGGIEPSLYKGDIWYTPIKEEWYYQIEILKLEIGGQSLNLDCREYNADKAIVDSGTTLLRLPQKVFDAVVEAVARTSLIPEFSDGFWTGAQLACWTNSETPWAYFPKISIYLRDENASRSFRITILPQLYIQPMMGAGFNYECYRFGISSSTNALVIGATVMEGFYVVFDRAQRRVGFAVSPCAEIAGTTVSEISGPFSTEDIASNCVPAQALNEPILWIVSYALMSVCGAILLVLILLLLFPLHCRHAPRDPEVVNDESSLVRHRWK

Structure (SMILES) | IC50 [nM]
CC(CNc1ccc(F)c([C@@]2(C)N=C(N)N(C)C(=O)C2(C)C)c1)C(F)(F)F (stereo partly drawn) [Example 83, (S)-2-Amino-6-[2-fluoro-5-(3,3,3-trifluoro-2-methyl-propylamino)-phenyl]-3,5,5,6-tetramethyl-5,6-dihydro-3H-pyrimidin-4-one] | 12
CN1C(=O)C(C)(C)[C@@](C)(c2cc(Nc3ccccc3)ccc2F)N=C1N [Example 48, (S)-2-amino-6-(2-fluoro-5-(phenylamino)phenyl)-3,5,5,6-tetramethyl-5,6-dihydropyrimidin-4(3H)-one] | 42
CN1C(=O)C(C)(C)[C@@](C)(c2cc(NC3COC3)ccc2F)N=C1N [Example 132, (S)-2-Amino-6-[2-fluoro-5-(oxetan-3-ylamino)-phenyl]-3,5,5,6-tetramethyl-5,6-dihydro-3H-pyrimidin-4-one] | 54
COC(F)(C(=O)Nc1ccc(F)c([C@@]2(C)N=C(N)N(C)C(=O)C2(C)C)c1)C(F)(F)F (stereo partly drawn) [Example 20, N-(3-((S)-2-Amino-1,4,5,5-tetramethyl-6-oxo-1,4,5,6-tetrahydropyrimidin-4-yl)-4-fluorophenyl)-2,3,3,3-tetrafluoro-2-methoxypropanamide] | 66
CN1C(=O)C(C)(C)[C@@](C)(c2cc(Nc3ccccc3OC(F)(F)F)ccc2F)N=C1N [Example 74, (S)-2-Amino-6-(2-fluoro-5-(2-(trifluoromethoxy)phenylamino)phenyl)-3,5,5,6-tetramethyl-5,6-dihydropyrimidin-4(3H)-one] | 76
CN1C(=O)C(C)(C)[C@@](C)(c2cc(NCC3(c4ccccc4)CC3)ccc2F)N=C1N [Example 53, (S)-2-Amino-6-{2-fluoro-5-[(1-phenyl-cyclopropylmethyl)-amino]-phenyl}-3,5,5,6-tetramethyl-5,6-dihydro-3H-pyrimidin-4-one] | 153
CN1C(=O)C(C)(C)[C@@](C)(c2cc(NCC3(C(F)(F)F)CC3)ccc2F)N=C1N [Example 87, (S)-2-Amino-6-{2-fluoro-5-[(1-trifluoromethyl-cyclopropylmethyl)-amino]-phenyl}-3,5,5,6-tetramethyl-5,6-dihydro-3H-pyrimidin-4-one] | 119
CN1C(=O)C(C)(C)[C@@](C)(c2cc(Nc3cc(F)ccc3F)ccc2F)N=C1N [Example 145, (S)-2-Amino-6-[5-(2,5-difluoro-phenylamino)-2-fluoro-phenyl]-3,5,5,6-tetramethyl-5,6-dihydro-3H-pyrimidin-4-one] | 14
COc1cc(F)ccc1Nc1ccc(F)c([C@@]2(C)N=C(N)N(C)C(=O)C2(C)C)c1 [Example 82, (S)-2-Amino-6-(2-fluoro-5-(4-fluoro-2-methoxyphenylamino)phenyl)-3,5,5,6-tetramethyl-5,6-dihydropyrimidin-4(3H)-one] | 135
CN1C(=O)C(C)(C)[C@@](C)(c2cc(NC3[C@H]4[C@@H](C[C@H]3O)[C@@H]4C(=O)O)ccc2F)N=C1N (stereo partly drawn) [Example 117, (1S,3R,5R,6S)-2-(3-((S)-2-amino-1,4,5,5-tetramethyl-6-oxo-1,4,5,6-tetrahydropyrimidin-4-yl)-4-fluorophenylamino)-3-hydroxybicyclo[3.1.0]hexane-6-carboxylic acid] | 226
COc1ccc(C(F)(F)F)cc1Nc1ccc(F)c([C@@]2(C)N=C(N)N(C)C(=O)C2(C)C)c1 [Example 121, (S)-2-Amino-6-(2-fluoro-5-(2-methoxy-5-(trifluoromethyl)phenylamino)phenyl)-3,5,5,6-tetramethyl-5,6-dihydropyrimidin-4(3H)-one] | 9
CN1C(=O)C(C)(C)[C@@](C)(c2cc(NC3CCOC3)ccc2F)N=C1N (stereo partly drawn) [Example 22, (S)-2-Amino-6-[2-fluoro-5-(tetrahydro-furan-3-ylamino)-phenyl]-3,5,5,6-tetramethyl-5,6-dihydro-3H-pyrimidin-4-one] | 5
COC(=O)CC1CCC(Nc2ccc(F)c([C@@]3(C)N=C(N)N(C)C(=O)C3(C)C)c2)C1 (stereo partly drawn) [Example 95, {3-[3-((S)-2-Amino-1,4,5,5-tetramethyl-6-oxo-1,4,5,6-tetrahydro-pyrimidin-4-yl)-4-fluoro-phenylamino]-cyclopentyl}-acetic acid methyl ester] | 406
CCOC(=O)[C@H]1[C@@H]2C[C@@H](O)C(Nc3ccc(F)c([C@@]4(C)N=C(N)N(C)C(=O)C4(C)C)c3)[C@@H]21 (stereo partly drawn) [Example 100, (1S,3R,5R,6S)-ethyl 2-(3-((S)-2-amino-1,4,5,5-tetramethyl-6-oxo-1,4,5,6-tetrahydropyrimidin-4-yl)-4-fluorophenylamino)-3-hydroxybicyclo[3.1.0]hexane-6-carboxylate] | 1
CN1C(=O)C(C)(C)[C@@](C)(c2cc(NC3CC(C)(C)CC3O)ccc2F)N=C1N (stereo partly drawn) [Example 158, (S)-2-Amino-6-[2-fluoro-5-(2-hydroxy-4,4-dimethyl-cyclopentylamino)-phenyl]-3,5,5,6-tetramethyl-5,6-dihydro-3H-pyrimidin-4-one] | 298
CN1C(=O)C(C)(C)[C@@](C)(c2cc(NC3CCc4c(C(=O)O)cccc43)ccc2F)N=C1N (stereo partly drawn) [Example 136, 1-[3-((S)-2-Amino-1,4,5,5-tetramethyl-6-oxo-1,4,5,6-tetrahydro-pyrimidin-4-yl)-4-fluoro-phenylamino]-indan-4-carboxylic acid] | 2000

Structure (SMILES) | IC50 [nM]
CN1C(=O)C(C)(C)[C@@](C)(c2cc(NC3CC(C)(C)c4ccccc43)ccc2F)N=C1N (stereo partly drawn) [Example 106, (6S)-2-Amino-6-(5-(3,3-dimethyl-2,3-dihydro-1H-inden-1-ylamino)-2-fluorophenyl)-3,5,5,6-tetramethyl-5,6-dihydropyrimidin-4(3H)-one] | 2
CN1C(=O)C(C)(C)[C@@](C)(c2cc(NC(=O)C3CC3(C)C)ccc2F)N=C1N (stereo partly drawn) [Example 19, N-(3-((S)-2-Amino-1,4,5,5-tetramethyl-6-oxo-1,4,5,6-tetrahydropyrimidin-4-yl)-4-fluorophenyl)-2,2-dimethylcyclopropanecarboxamide] | 74
Cc1cc(Nc2ccc(F)c([C@@]3(C)N=C(N)N(C)C(=O)C3(C)C)c2)n(C)n1 [Example 39, (S)-2-Amino-6-[5-(2,5-dimethyl-2H-pyrazol-3-ylamino)-2-fluoro-phenyl]-3,5,5,6-tetramethyl-5,6-dihydro-3H-pyrimidin-4-one] | 234
CN1C(=O)C(C)(C)[C@@](C)(c2cc(NCC(F)(F)F)ccc2F)N=C1N [Example 75, (S)-2-Amino-6-(2-fluoro-5-(2,2,2-trifluoroethylamino)phenyl)-3,5,5,6-tetramethyl-5,6-dihydropyrimidin-4(3H)-one] | 12
CN1C(=O)C(C)(C)[C@@](C)(c2cc(NC(=O)C(F)(F)C(F)(F)F)ccc2F)N=C1N [Example 6, N-[3-((S)-2-Amino-1,4,5,5-tetramethyl-6-oxo-1,4,5,6-tetrahydro-pyrimidin-4-yl)-4-fluoro-phenyl]-2,2,3,3,3-pentafluoro-propionamide] | 350
Cc1ccc2c(c1)C(Nc1ccc(F)c([C@@]3(C)N=C(N)N(C)C(=O)C3(C)C)c1)CC2(C)C (stereo partly drawn) [Example 46, (S)-2-Amino-6-[2-fluoro-5-(3,3,6-trimethyl-indan-1-ylamino)-phenyl]-3,5,5,6-tetramethyl-5,6-dihydro-3H-pyrimidin-4-one] | 109
CN1C(=O)C(C)(C)[C@@](C)(c2cc(NC3CCN(Cc4ccccc4)CC3)ccc2F)N=C1N [Example 43, (S)-2-Amino-6-[5-(1-benzyl-piperidin-4-ylamino)-2-fluoro-phenyl]-3,5,5,6-tetramethyl-5,6-dihydro-3H-pyrimidin-4-one] | 211
Cc1cc(CNc2ccc(F)c([C@@]3(C)N=C(N)N(C)C(=O)C3(C)C)c2)no1 [Example 104, (S)-2-Amino-6-{2-fluoro-5-[(5-methyl-isoxazol-3-ylmethyl)-amino]-phenyl}-3,5,5,6-tetramethyl-5,6-dihydro-3H-pyrimidin-4-one] | 4
COc1cc(C(F)(F)F)ccc1Nc1ccc(F)c([C@@]2(C)N=C(N)N(C)C(=O)C2(C)C)c1 [Example 94, (S)-2-Amino-6-[2-fluoro-5-(2-methoxy-(4-trifluoromethyl)-phenylamino)-phenyl]-3,5,5,6-tetramethyl-5,6-dihydro-3H-pyrimidin-4-one] | 704
CN1C(=O)C(C)(C)[C@@](C)(c2cc(Nc3ccc(F)cc3F)ccc2F)N=C1N [Example 81, (S)-2-Amino-6-(5-(2,4-difluorophenylamino)-2-fluorophenyl)-3,5,5,6-tetramethyl-5,6-dihydropyrimidin-4(3H)-one] | 223
CN1C(=O)C(C)(C)[C@@](C)(c2cc(Nc3ccnn3Cc3ccccc3)ccc2F)N=C1N [Example 107, (S)-2-Amino-6-(5-(1-benzyl-1H-pyrazol-5-ylamino)-2-fluorophenyl)-3,5,5,6-tetramethyl-5,6-dihydropyrimidin-4(3H)-one] | 2
CN1C(=O)C(C)(C)[C@@](C)(c2cc(NC3CCc4cccc(Cl)c43)ccc2F)N=C1N (stereo partly drawn) [Example 49, (S)-2-Amino-6-[5-(7-chloro-indan-1-ylamino)-2-fluoro-phenyl]-3,5,5,6-tetramethyl-5,6-dihydro-3H-pyrimidin-4-one] | 321
Cc1ccc(Cl)cc1Nc1ccc(F)c([C@@]2(C)N=C(N)N(C)C(=O)C2(C)C)c1 [Example 118, (S)-2-Amino-6-(5-(5-chloro-2-methylphenylamino)-2-fluorophenyl)-3,5,5,6-tetramethyl-5,6-dihydropyrimidin-4(3H)-one] | 2
C[C@@H]1CC(Nc2ccc(F)c([C@@]3(C)N=C(N)N(C)C(=O)C3(C)C)c2)C[C@H](C)O1 (stereo partly drawn) [Example 155, (6S)-2-Amino-6-(5-((2R,6S)-2,6-dimethyltetrahydro-2H-pyran-4-ylamino)-2-fluorophenyl)-3,5,5,6-tetramethyl-5,6-dihydropyrimidin-4(3H)-one] | 123
CN1C(=O)C(C)(C)[C@@](C)(c2cc(NC(=O)C3CC3)ccc2F)N=C1N [Example 17, (S)—N-(3-(2-Amino-1,4,5,5-tetramethyl-6-oxo-1,4,5,6-tetrahydropyrimidin-4-yl)-4-fluorophenyl)cyclopropanecarboxamide] | 360

From patent US8815881B2 (Hoffmann-La Roche Inc., priority 2010, dated 2014)
